Results: ChEMBL document CHEMBL1147935, “Synthesis and antihypertensive activity of novel 3-benzyl-2-substituted-3H-[1,2,4]triazolo[5,1-b]quinazolin-9-ones” (2007)

Key:
Assay type in all cases: functional
Design in all cases: scale not given: the % may be the effect or the level left
[1] = system: Rattus norvegicus; assay: Antihypertensive activity in spontaneously hypertensive rat assessed as decrease in blood pressure at 5 mg/kg, po after 2 hrs by tail cuff method
[2] = system: Rattus norvegicus; assay: Antihypertensive activity in spontaneously hypertensive rat assessed as decrease in blood pressure at 5 mg/kg, po after 5 hrs by tail cuff method
[3] = system: Rattus norvegicus; assay: Antihypertensive activity in spontaneously hypertensive rat assessed as decrease in blood pressure at 5 mg/kg, po after 1 hr by tail cuff method
[4] = system: Rattus norvegicus; assay: Antihypertensive activity in spontaneously hypertensive rat assessed as decrease in blood pressure at 5 mg/kg, po after 3 hrs by tail cuff method
[5] = system: Rattus norvegicus; assay: Antihypertensive activity in spontaneously hypertensive rat assessed as decrease in blood pressure at 5 mg/kg, po after 4 hrs by tail cuff method

Row | Structure (SMILES) | Activity [1] [%] | Activity [2] [%] | Activity [3] [%] | Activity [4] [%] | Activity [5] [%]
1 | O=c1c2ccccc2nc2n(Cc3ccccc3)c(CN3CCOCC3)nn12 | 10 | 19.4 | 8.6 | 21.7 | 25.6
2 | O=c1c2ccccc2nc2n(Cc3ccccc3)c(CN3CCCCC3)nn12 | 5.1 | 13.1 | 3.6 | 9.1 | 16.1
3 | CCCc1nn2c(=O)c3ccccc3nc2n1Cc1ccccc1 | 20.5 | 15.7 | 13.4 | 19 | 17
4 | O=c1c2ccccc2nc2n(Cc3ccccc3)c(CCl)nn12 | 11.9 | 6.7 | 3.7 | 15 | 17.2
5 | O=c1c2ccccc2nc2n(Cc3ccccc3)cnn12 | 7.3 | 19.8 | 5.4 | 17.3 | 20.8
6 | O=c1c2ccccc2nc2n(Cc3ccccc3)c(-c3ccccc3)nn12 | 7.1 | 14.1 | 6.1 | 10.1 | 13.1
7 | Cc1nn2c(=O)c3ccccc3nc2n1Cc1ccccc1 | 31.5 | 15.3 | 15.3 | 33.5 | 38.8
8 | Cc1ccc(-c2nn3c(=O)c4ccccc4nc3n2Cc2ccccc2)cc1 | 5.6 | 16.2 | 4.7 | 9.1 | 11.6
9 | COc1cc2nc(N3CCN(C(=O)c4ccco4)CC3)nc(N)c2cc1OC [PRAZOSIN] | 24.6 | 12.9 | 30.2 | 18 | 19.6
10 | CCOc1ccc(-c2nn3c(=O)c4ccccc4nc3n2Cc2ccccc2)cc1 | 7.6 | 16.5 | 6.5 | 9.52 | 13.6
11 | COc1ccc(-c2nn3c(=O)c4ccccc4nc3n2Cc2ccccc2)cc1 | 9.7 | 15.4 | 5.9 | 9.6 | 12.6
